Laboratory results as given in patent publication US4599352A, “Antineoplastic platinum (IV) complexes and compositions” (priority 1984, dated 1986).

Columns and labels:
IP L1210/Cisplatin = assay: Activity against IP-implanted L1210/Cisplatin leukemia resistant to cisplatin, 30 day test (Table 3); type: in vivo, Female CD2Fl mice
Summary of the method: (§1)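 CD2F1 mice implanted IP with 10^5 cells on Day 0; compounds given IP as single injections on Days 1, 5 and 9, freshly prepared in saline (5% sodium bicarbonate for NSC-271674). Activity as median survival % T/C over 30 days, Day 5 body-weight difference (T-C) and log10 change in tumor burden.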

IP L1210 leukemia = assay: Mouse optimal (highest tolerated) dose, IP L1210 leukemia, Days 1, 5 and 9 schedule (Table 7); type: in vivo
Description: *IP L1210 leukemia, Days 1, 5 and 9 schedule. Highest tolerated dose in a
least 2 of 3 experiments (i.e,. animal weight difference (testcontrol)

IP L1210 = assay: Activity against IP-implanted L1210 leukemia sensitive to cisplatin, 30 day test (Table 3); type: in vivo, Female CD2Fl mice
Summary of the method: as §1

[1] = test system: IP-Implanted L1210 Leukemia; assay: Dose-response against IP-implanted L1210 leukemia, IP treatment Days 1, 5 and 9, 30-day test (Table 2); type: in vivo, CD2Fl male mice
Summary of the method: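 CD2F1 male mice implanted IP with 10^5 cells on Day 0; single IP doses in saline (5% sodium bicarbonate for NSC-271674) on Days 1, 5, 9. Median survival over 30 days (survivors included) as % T/C; Day 5 body-weight difference T−C (g); net log10 tumor-burden change over therapy from ~6.1×10^5 starting cells.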

N[C@@H]1CCCC[C@H]1N.O=C([O-])c1ccc(C(=O)[O-])c(C(=O)[O-])c1.[H+].[Pt+2] [Carboxyphthalato Platinum, carboxyphthalatocyclohexanediamine platinum (II), reference compound]
30 Day Survivors/Total (IP L1210/Cisplatin; 3.13 mg/kg/dose): 2/6 | Approx. Log10 Change in Tumor Burden at End of RX (IP L1210/Cisplatin; 3.13 mg/kg/dose): ~2.4 log10 | Median % T/C (IP L1210/Cisplatin; 3.13 mg/kg/dose): 139% | 30 Day Survivors/Total (IP L1210/Cisplatin; 6.25 mg/kg/dose): 4/6 | Approx. Log10 Change in Tumor Burden at End of RX (IP L1210/Cisplatin; 6.25 mg/kg/dose): ~-5.9 log10 | Median % T/C (IP L1210/Cisplatin; 6.25 mg/kg/dose): 322% | 30 Day Survivors/Total (IP L1210/Cisplatin; 12.5 mg/kg/dose): 4/6 | Approx. Log10 Change in Tumor Burden at End of RX (IP L1210/Cisplatin; 12.5 mg/kg/dose): ~-5.9 log10 | Median % T/C (IP L1210/Cisplatin; 12.5 mg/kg/dose): 322% | 30 Day Survivors/Total (IP L1210/Cisplatin; 25 mg/kg/dose): 2/6 | Approx. Log10 Change in Tumor Burden at End of RX (IP L1210/Cisplatin; 25 mg/kg/dose): ~-5.9 log10 | Median % T/C (IP L1210/Cisplatin; 25 mg/kg/dose): 304% | 30 Day Survivors/Total (IP L1210/Cisplatin; 50 mg/kg/dose): 1/6 | Median % T/C (IP L1210/Cisplatin; 50 mg/kg/dose): 129% | Reduction in tumor burden over the course of therapy (IP L1210/Cisplatin; L1210/Cisplatin): at least -5.9 logs | 30-day survivors (IP L1210/Cisplatin; tolerated doses): three or more 30-day survivors | Mouse Optimal Dose (highest tolerated dose in at least 2 of 3 experiments) (IP L1210 leukemia): 12.5 mg/kg | 30 Day Survivors/Total (IP L1210; 3.13 mg/kg/dose): 1/6 | Approx. Log10 Change in Tumor Burden at End of RX (IP L1210; 3.13 mg/kg/dose): ~1.4 log10 | Median % T/C (IP L1210; 3.13 mg/kg/dose): 174% | 30 Day Survivors/Total (IP L1210; 6.25 mg/kg/dose): 5/6 | Approx. Log10 Change in Tumor Burden at End of RX (IP L1210; 6.25 mg/kg/dose): ~-5.9 log10 | Median % T/C (IP L1210; 6.25 mg/kg/dose): 348% | 30 Day Survivors/Total (IP L1210; 12.5 mg/kg/dose): 6/6 | Approx. Log10 Change in Tumor Burden at End of RX (IP L1210; 12.5 mg/kg/dose): ~-5.9 log10 | Median % T/C (IP L1210; 12.5 mg/kg/dose): 348% | 30 Day Survivors/Total (IP L1210; 25 mg/kg/dose): 0/6 | Median % T/C (IP L1210; 25 mg/kg/dose): 73% | 30 Day Survivors/Total (IP L1210; 50 mg/kg/dose): 0/6 | Median % T/C (IP L1210; 50 mg/kg/dose): 50% | 30-Day Survivors/Total ([1]; 3.13 mg/kg/dose IP): 0/6 | Approx. Log10 Change in Tumor Burden at End of Rx ([1]; 3.13 mg/kg/dose IP): ~2.5 log10 | Body Weight Difference ([1]; 3.13 mg/kg/dose IP): -0.5 Grams | Median % T/C ([1]; 3.13 mg/kg/dose IP): 146% | 30-Day Survivors/Total ([1]; 6.25 mg/kg/dose IP): 0/6 | Approx. Log10 Change in Tumor Burden at End of Rx ([1]; 6.25 mg/kg/dose IP): ~2.3 log10 | Body Weight Difference ([1]; 6.25 mg/kg/dose IP): -0.8 Grams | Median % T/C ([1]; 6.25 mg/kg/dose IP): 154% | 30-Day Survivors/Total ([1]; 12.5 mg/kg/dose IP): 2/6 | Approx. Log10 Change in Tumor Burden at End of Rx ([1]; 12.5 mg/kg/dose IP): -5.7 log10 | Body Weight Difference ([1]; 12.5 mg/kg/dose IP): -2.1 Grams | Median % T/C ([1]; 12.5 mg/kg/dose IP): 309% | 30-Day Survivors/Total ([1]; 25 mg/kg/dose IP): 4/6 | Approx. Log10 Change in Tumor Burden at End of Rx ([1]; 25 mg/kg/dose IP): -5.7 log10 | Body Weight Difference ([1]; 25 mg/kg/dose IP): -1.5 Grams | Median % T/C ([1]; 25 mg/kg/dose IP): 357% | 30-Day Survivors/Total ([1]; 50 mg/kg/dose IP): 2/6 | Approx. Log10 Change in Tumor Burden at End of Rx ([1]; 50 mg/kg/dose IP): -5.7 log10 | Body Weight Difference ([1]; 50 mg/kg/dose IP): -5.0 Grams | Median % T/C ([1]; 50 mg/kg/dose IP): 345% | Body Weight Difference ([1]; 50 mg/kg/dose IP, listed as carboxyphthalato cyclohexanediamine platinum (II)): more than -4 Grams
